In patent US20210267865A1, “COSMETIC COMPOSITION FOR INCREASING SKIN EXFOLIATION” (LG HOUSEHOLD & HEALTH CARE LTD., priority 2018, published 2021):

Tests used:
[1] = test system: stratum corneum of inside forearm and upper arm; test: Evaluation of exfoliation turnover enhancement by DHA staining (human skin test); type: in vivo; conditions: for turnover time (TT100): polyol humectant content 10% or 50%, non-application group 20 days
Protocol: DHA staining for evaluating the speed of exfoliation turnover was conducted for 10 healthy males aged between 20 and 40 years according to the method described in Dermatology 1993, 186, 133-137. Prior to sample application, the color of the inside forearm and upper arm of the test subjects was measured with Chroma Meter. Then, a 1.5×1.5 cm gauze soaked with about 0.4 mL of 10% dihydroxyacetone (DHA) was attached to the inside forearm and upper arm for 8 hours. 48 hours later, the color of the part that was pigmented brown by DHA was compared with that before the sample application. Subsequently, while applying the sample twice a day, the time required to return to the original skin color was measured by measuring the skin color every day with Chroma Meter. TT (turnover time) 100% means the time required for the existing stratum corneum to be completely (100%) replaced with a new stratum corneum. In this experiment, the time required for the skin pigmented by DHA corneum to completely return to the original color was compared by regression analysis. The result was compared with that of the negative control group (20 days).

pig skin = test: Evaluation of pig skin exfoliation (number of exfoliated cells from biopsied pig skin); conditions: for activity versus gluconolactone (PHA) or lactic acid (AHA) at pH 4: neutral or weakly acidic pH of 5-7
Protocol: The exfoliation evaluation method described in Journal of the European Academy of Dermatology and Venereology, 2014, 28, 415-423 was used. Specifically, pig skin was biopsied and a sample to be tested was added. Then, the number of exfoliated cells was measured with a cell counter and was plotted with water as a negative control group (0%) and 10% gluconolactone at pH 4 as a positive control group (100%).

[2] = with glycerin, dipropylene glycol or 1,3-butylene glycol, polyol humectant content exceeding 10 wt %

Which “turnover time (TT100)” value [1] does the source give for `C[N+](C)(C)CC(O)CC(=O)[O-]` (centres unmarked) [Carnitine, carnitine] here?
The value was “no significant difference”.

And the exfoliation effect (pig skin; 5% carnitine, pH 7, concentration of glycerin higher than 10 wt % (FIG. 2))?
The exfoliation effect was 0%.

What about the exfoliation activity (pig skin; 5% carnitine, pH 7, with 10% or 12% glycerin, dipropylene glycol or 1,3-butylene glycol (FIG. 5)) of the same compound?
The exfoliation activity was “decreased to the levels where human skin test is meaningless”.

What about the Exfoliation ability % (pig skin; carnitine 0.5 wt %, glycerin 0 wt %) of the same compound?
The Exfoliation ability % was 61%.

What about the Exfoliation ability % (pig skin; carnitine 0.5 wt %, glycerin 0.5 wt %) of the same compound?
The Exfoliation ability % was 50%.

What about the Exfoliation ability % (pig skin; carnitine 0.5 wt %, glycerin 1 wt %) of the same compound?
The Exfoliation ability % was 18%.

What about the Exfoliation ability % (pig skin; carnitine 0.5 wt %, glycerin 5 wt %) of the same compound?
Its Exfoliation ability % is 11%.

And the Exfoliation ability % (pig skin; carnitine 0.5 wt %, glycerin 10 wt %)?
Its Exfoliation ability % is 0%.

And the Exfoliation ability % (pig skin; carnitine 5 wt %, glycerin 0 wt %)?
Its Exfoliation ability % is 100%.

And the Exfoliation ability % (pig skin; carnitine 5 wt %, glycerin 0.1 wt %)?
Its Exfoliation ability % is 89%.

What about the Exfoliation ability % (pig skin; carnitine 5 wt %, glycerin 0.5 wt %) of the same compound?
The Exfoliation ability % was 91%.

And the Exfoliation ability % (pig skin; carnitine 5 wt %, glycerin 1 wt %)?
Its Exfoliation ability % is 55%.

And the Exfoliation ability % (pig skin; carnitine 5 wt %, glycerin 2 wt %)?
The Exfoliation ability % was 53%.

What about the Exfoliation ability % (pig skin; carnitine 5 wt %, glycerin 3 wt %) of the same compound?
The Exfoliation ability % was 30%.

What about the Exfoliation ability % (pig skin; carnitine 5 wt %, glycerin 4 wt %) of the same compound?
Its Exfoliation ability % is 19%.

What about the Exfoliation ability % (pig skin; carnitine 5 wt %, glycerin 5 wt %) of the same compound?
The Exfoliation ability % was 12%.

And the Exfoliation ability % (pig skin; carnitine 5 wt %, glycerin 7 wt %)?
Its Exfoliation ability % is 5%.

What about the Exfoliation ability % (pig skin; carnitine 5 wt %, glycerin 10 wt %) of the same compound?
The Exfoliation ability % was 4%.

And the Exfoliation ability % (pig skin; carnitine 5 wt %, glycerin 12 wt %)?
The Exfoliation ability % was 0%.

And the Exfoliation ability % (pig skin; carnitine 5 wt %, glycerin 15 wt %)?
The Exfoliation ability % was 0%.

What about the “activity versus gluconolactone (PHA) or lactic acid (AHA) at pH 4” value (pig skin) of the same compound?
Its value is “comparable to or better than”.

What about the exfoliation effect (pig skin; [2]) of the same compound?
The exfoliation effect was 0%.

Which results are given for `N[C@@H](CO)C(=O)O` [Serine, serine]?
decrease of TT100% versus non-application group ([1]; 5% serine, applied twice a day): 6 days; TT100% (turnover time) ([1]; 5% serine, applied twice a day, non-application group 20 days (FIG. 13)): 14 days; turnover time (TT100) [1]: no significant difference; visual change after application for 10 days ([1]; serine alone at concentrations of 0.5% and 5% (FIG. 12)): effective; visual change after application for 10 days ([1]; serine with glycerin concentration 10% or 50% (FIG. 12)): no significant difference from the non-application group; TT100% (turnover time) ([1]; serine with glycerin concentration 10% or 50% (FIG. 13)): no significant difference from the non-application group; exfoliating effect (pig skin; 5% serine with humectant mixtures (glycerin 1:DPG 1:1,3-BG 1) (FIG. 6)): decreased similarly; exfoliation effect (pig skin; 5% serine, pH 6, concentration of glycerin 10% or higher (FIG. 1)): 0%; exfoliation activity (pig skin; 5% serine, pH 6, dipropylene glycol or 1,3-butylene glycol exceeding 10% (FIGS. 3 and 4)): decreased below that of water (negative control group); activity versus gluconolactone (PHA) or lactic acid (AHA) at pH 4 (pig skin): comparable to or better than; Exfoliation ability % (pig skin; serine 0.5 wt %, glycerin 0 wt %): 56%; Exfoliation ability % (pig skin; serine 0.5 wt %, glycerin 0.5 wt %): 53%; Exfoliation ability % (pig skin; serine 0.5 wt %, glycerin 1 wt %): 34%; Exfoliation ability % (pig skin; serine 0.5 wt %, glycerin 5 wt %): 19%; Exfoliation ability % (pig skin; serine 0.5 wt %, glycerin 10 wt %): 13%; Exfoliation ability % (pig skin; serine 5 wt %, glycerin 0 wt %): 91%; Exfoliation ability % (pig skin; serine 5 wt %, glycerin 0.1 wt %): 85%; Exfoliation ability % (pig skin; serine 5 wt %, glycerin 0.5 wt %): 86%; Exfoliation ability % (pig skin; serine 5 wt %, glycerin 1 wt %): 59%; Exfoliation ability % (pig skin; serine 5 wt %, glycerin 2 wt %): 47%; Exfoliation ability % (pig skin; serine 5 wt %, glycerin 3 wt %): 23%; Exfoliation ability % (pig skin; serine 5 wt %, glycerin 4 wt %): 26%; Exfoliation ability % (pig skin; serine 5 wt %, glycerin 5 wt %): 21%; Exfoliation ability % (pig skin; serine 5 wt %, glycerin 7 wt %): 16%; Exfoliation ability % (pig skin; serine 5 wt %, glycerin 10 wt %): 16%; Exfoliation ability % (pig skin; serine 5 wt %, glycerin 12 wt %): −2%; Exfoliation ability % (pig skin; serine 5 wt %, glycerin 15 wt %): −5%; exfoliation effect (pig skin; [2]): 0%
